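1) Cells in 96-well plates. 2) Compound, 48 h, 5 concentrations. 3) Linear interpolation between surrounding doses. 4) Unreached endpoint = highest concentration. TGI: concentration producing complete growth inhibition.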
Experiments:
Assay in all cases: NCI tumour cell line growth inhibition, 48 h
[1] = test system: ACHN renal
[2] = test system: BT-549 breast
[3] = test system: HCC-2998 colon
[4] = test system: HCT-15 colon
[5] = test system: HOP-92 NSCLC
[6] = test system: OVCAR-4 ovarian
[7] = test system: RXF 393 renal
[8] = test system: U251 CNS
[9] = test system: UO-31 renal
[10] = test system: SF-268 CNS

SMILES | TGI [1] | TGI [2] | TGI [3] | TGI [4] | TGI [5] | TGI [6] | TGI [7] | TGI [8] | TGI [9] | TGI [10]
CC1(C)OCC2OC3([C@H](O)CCO)OC(C)(C)OC3C2O1 (some centres not stated) | > 100 µM | > 100 µM | > 100 µM | > 100 µM | > 100 µM | > 100 µM | > 100 µM | > 100 µM | > 100 µM | –
CCOC(=O)CCC(NC(=O)c1ccc(CNc2nc3cc(N)cc(N)c3nc2-c2ccccc2)cc1)C(=O)OCC (configuration not stated) | > 100 µM | > 100 µM | > 100 µM | > 100 µM | > 100 µM | 42 µM | > 100 µM | > 100 µM | > 100 µM | > 100 µM
COc1ccc(/C=C2\CN(C)CC3=C2OC(N)=C(C#N)C3c2ccc(OC)cc2)cc1 (configuration not stated) | > 100 µM | > 100 µM | > 90.5 µM | > 100 µM | 59.3 µM | > 100 µM | > 86.9 µM | > 100 µM | > 100 µM | > 100 µM
C#CC(O)/C=C/CCCCCCC#CC/C=C\CC#CCCCCCC/C=C/C(O)C#C (configuration not stated) | 13.7 µM | 9.61 µM | 3.39 µM | 6.94 µM | 5.57 µM | 10.1 µM | 28.3 µM | 26 µM | 0.915 µM | 10.8 µM
N[C@@H]1c2c(Br)sc(Br)c2[C@H](O)[C@@H]1O | > 100 µM | > 100 µM | > 100 µM | > 100 µM | > 100 µM | > 100 µM | > 100 µM | > 100 µM | > 100 µM | > 100 µM
OC1C(O)C(O)C(O)C(O)C1O (configuration not stated) | > 1000 µM | > 1000 µM | > 1000 µM | > 1000 µM | > 1000 µM | > 1000 µM | > 1000 µM | > 1000 µM | > 1000 µM | > 1000 µM
Cc1cccc(-c2cc(=O)c3ccc(C)nc3[nH]2)c1 | > 100 µM | > 100 µM | 27.4 µM | > 35.2 µM | 57.7 µM | > 100 µM | > 100 µM | > 100 µM | > 100 µM | > 100 µM
O=c1c2cc(Br)ccc2oc2nc3n(c(=O)c12)CCCS3 | > 100 µM | > 100 µM | > 100 µM | > 100 µM | > 100 µM | > 100 µM | > 100 µM | > 100 µM | > 100 µM | > 100 µM
COC(=O)C(NC(=O)CNC(=O)CSc1nnc(COc2ccc(Cl)cc2)n1-c1ccccc1)C(C)C (configuration not stated) | 31.8 µM | 34 µM | 34 µM | 48.9 µM | 51.5 µM | 57.1 µM | 32.8 µM | 35.5 µM | 33.3 µM | 42.7 µM
FC(F)(F)c1ccc2c(c1)nc(Cc1ccccc1)n2C[C@@H]1CCCN2CCCCC12 (some centres not stated) | 26.5 µM | 28.7 µM | 10.6 µM | 30.6 µM | 27.2 µM | 31.5 µM | 23 µM | 29.2 µM | 0.744 µM | 31 µM
C[n+]1c2ccccc2c(CNC(CCC(N)=O)C(=O)O)c2ccccc21 (configuration not stated) | 5.41 µM | 10.1 µM | 11.2 µM | 4.31 µM | 6.96 µM | 9.24 µM | 6.18 µM | 12.8 µM | 10.3 µM | 6.71 µM
COc1ccc(-c2cc(-c3ccc(Nc4ccnc5cc(C(F)(F)F)ccc45)cc3)[nH]c(=O)c2C#N)c2ccccc12 | > 81.5 µM | > 100 µM | > 100 µM | > 100 µM | > 100 µM | > 100 µM | 46.1 µM | > 36.4 µM | > 65.9 µM | > 100 µM
O=C(O)c1c(CC(Cc2ccc3c(c2)CCCC3)C(=O)O)ccc2c1CCCC2 (configuration not stated) | > 100 µM | > 100 µM | > 100 µM | > 100 µM | > 100 µM | – | > 100 µM | > 100 µM | > 100 µM | > 100 µM
CCCn1cnc2c(NN=O)ncnc21 | > 100 µM | > 100 µM | > 100 µM | > 100 µM | > 100 µM | > 100 µM | > 100 µM | > 100 µM | > 100 µM | > 100 µM
Cc1ccc(S(=O)(=O)N2CCSCCSCCN(S(=O)(=O)c3ccc(C)cc3)CCN(S(=O)(=O)c3ccc(C)cc3)CC2)cc1 | > 100 µM | > 100 µM | > 100 µM | > 100 µM | > 100 µM | > 100 µM | > 100 µM | > 100 µM | > 100 µM | > 100 µM
Oc1ccc2c(c1)OCC(O)(c1ccccc1O)C2 (configuration not stated) | > 100 µM | > 100 µM | > 100 µM | > 100 µM | > 100 µM | > 100 µM | > 100 µM | > 100 µM | > 100 µM | > 100 µM
CC1=C/C(=N/N2C(=O)/C(=C/c3ccc(Cl)cc3)N=C2c2ccccc2)CC(C)(C)C1 | > 100 µM | > 100 µM | > 100 µM | > 100 µM | > 100 µM | > 100 µM | > 100 µM | 69.7 µM | > 100 µM | > 100 µM
C=CCN1C(=O)/C(=C/c2ccc(C)cc2)N=C1SC/C=C/C | > 100 µM | > 100 µM | > 100 µM | > 100 µM | 90.9 µM | > 100 µM | 46.8 µM | 77.6 µM | > 100 µM | > 100 µM

SMILES | TGI [1] | TGI [2] | TGI [3] | TGI [4] | TGI [5] | TGI [6] | TGI [7] | TGI [8] | TGI [9] | TGI [10]
COC(=O)C1=NN2c3ccccc3C(=O)OCCC2C1 (configuration not stated) | > 100 µM | > 100 µM | > 100 µM | > 100 µM | > 100 µM | > 100 µM | > 100 µM | > 100 µM | > 100 µM | > 100 µM
Clc1ccc(OCc2nnc3sc(-c4ccc(-c5ccc(Cl)cc5Cl)o4)nn23)c(Cl)c1 | 45.8 µM | 50.6 µM | 36.6 µM | 49.9 µM | 37.4 µM | > 100 µM | 30.2 µM | 37.5 µM | 44.4 µM | 32.5 µM
COc1cccc(NCC(=O)Nn2c(-c3ccccc3)nc3ccccc3c2=O)c1 | > 100 µM | > 100 µM | > 100 µM | > 100 µM | > 100 µM | > 100 µM | > 100 µM | > 100 µM | > 100 µM | > 100 µM
COc1nn(Cc2ccccc2F)c2ccc([N+](=O)[O-])cc12 | > 100 µM | > 100 µM | > 100 µM | > 100 µM | > 100 µM | > 100 µM | > 83.6 µM | > 100 µM | > 100 µM | > 100 µM
N#Cc1c(=O)c2cc([N+](=O)[O-])ccc2n2c1[nH]c1ccccc12 | > 93.5 µM | > 69.5 µM | > 100 µM | > 61.6 µM | > 39 µM | > 100 µM | > 100 µM | > 92.6 µM | > 57.4 µM | > 100 µM
O=C1Oc2ccccc2C(=O)/C1=C/N1C(=O)/C(=C/c2ccc([N+](=O)[O-])cc2)SC1=S | 34 µM | 31.2 µM | 42.2 µM | 61.7 µM | 5.71 µM | > 100 µM | 79.3 µM | > 100 µM | – | 75.4 µM
O=C1CN(c2ccc(Cl)cc2)C(=O)CN1CCN1CC(=O)N(c2ccc(Cl)cc2)CC1=O | > 100 µM | > 100 µM | > 100 µM | > 100 µM | > 100 µM | > 100 µM | > 100 µM | > 100 µM | > 100 µM | > 100 µM
CCCCCCCCCCCCCCCCCCNc1ccn(C2OC(COP(=O)(O)O)C(O)C2O)c(=O)n1 (configuration not stated) | > 100 µM | > 100 µM | > 100 µM | > 100 µM | > 100 µM | > 100 µM | > 100 µM | > 100 µM | > 100 µM | > 100 µM
COC(=O)c1ccc2n1C1CC3CC(CC2C3)C1 | > 100 µM | > 100 µM | > 100 µM | > 100 µM | > 100 µM | > 100 µM | 96.6 µM | > 100 µM | > 100 µM | > 100 µM
CC1=C(C2=C(C)C(=O)C(=O)c3cc(C)ccc32)c2ccc(C)cc2C(=O)C1=O | 0.354 µM | 0.374 µM | 0.298 µM | > 100 µM | 0.398 µM | – | 0.62 µM | 0.685 µM | 0.305 µM | –
CC1=C(C(=O)OCCO[N+](=O)[O-])C(c2ccccc2C(F)(F)F)C(C(=O)OC(C)C)=C(C)N1 (configuration not stated) | > 100 µM | 26.9 µM | > 100 µM | 60.6 µM | 26.8 µM | 93.4 µM | 31.4 µM | 29.1 µM | 33.6 µM | 47.9 µM
Oc1cc(Cl)cc2cc(Br)cnc12 | > 32.1 µM | > 100 µM | > 73.9 µM | > 100 µM | > 100 µM | > 100 µM | 19.2 µM | 98.1 µM | > 72.1 µM | > 48.1 µM
CCCCCCOc1ccc(NC2=C(Cl)C(=O)c3cccnc3C2=O)cc1 | 4.38 µM | > 10 µM | 3.1 µM | 3.96 µM | 3.53 µM | – | 2.77 µM | 7.29 µM | 2.47 µM | 5.31 µM
O=C1CC(Br)c2c(Cl)sc(Cl)c21 (configuration not stated) | 24.6 µM | 61.4 µM | 24.4 µM | 28.1 µM | 29.6 µM | – | 4.91 µM | 10.4 µM | 15.7 µM | 26.6 µM
O=c1nc2n(cc1/C=C\Br)C1CC(O)C(CO2)O1 (configuration not stated) | > 100 µM | > 100 µM | > 100 µM | > 100 µM | – | > 100 µM | 57 µM | > 100 µM | > 100 µM | > 100 µM
Cc1cccc2sc(NC(=O)c3cc([N+](=O)[O-])ccc3Cl)nc12 | > 100 µM | 9.5 µM | 40.2 µM | > 29.1 µM | > 31.2 µM | > 100 µM | 12.9 µM | 11.4 µM | 10.4 µM | > 33.7 µM
COc1cc(/C=C2\N=C(c3ccccc3)N(C3Nc4cc5c(cc4S3)NC(N3C(=O)/C(=C/c4cc(OC)c(OC)c(OC)c4)N=C3c3ccccc3)S5)C2=O)cc(OC)c1OC (configuration not stated) | > 100 µM | > 100 µM | > 100 µM | > 100 µM | > 100 µM | > 100 µM | > 100 µM | > 100 µM | > 100 µM | > 100 µM

Reference: PubChem BioAssay (NCI)
